Test results: article PMC3639963, “A New Class of Small Molecule Inhibitor of BMP Signaling” (PLoS ONE, 2013)

Experiments:
Assay in all cases: Nanosyn kinase profiling
Format in all cases: biochemical
Conditions in all cases: read-out: Percentage inhibition; for inhibition at 0.1 µM: 0.1 µM inhibitor; for inhibition at 1 µM: 1 µM inhibitor
TBK1 = target: T1, TBK1 (Homo sapiens, UniProt Q9UHD2)
T1 construct: purchased Nanosyn (enzymatic panel); SGC in-house recombinant human kinases (DSF panel); Invitrogen (ALK1-6)
T1 sequence (Q9UHD2 1-729): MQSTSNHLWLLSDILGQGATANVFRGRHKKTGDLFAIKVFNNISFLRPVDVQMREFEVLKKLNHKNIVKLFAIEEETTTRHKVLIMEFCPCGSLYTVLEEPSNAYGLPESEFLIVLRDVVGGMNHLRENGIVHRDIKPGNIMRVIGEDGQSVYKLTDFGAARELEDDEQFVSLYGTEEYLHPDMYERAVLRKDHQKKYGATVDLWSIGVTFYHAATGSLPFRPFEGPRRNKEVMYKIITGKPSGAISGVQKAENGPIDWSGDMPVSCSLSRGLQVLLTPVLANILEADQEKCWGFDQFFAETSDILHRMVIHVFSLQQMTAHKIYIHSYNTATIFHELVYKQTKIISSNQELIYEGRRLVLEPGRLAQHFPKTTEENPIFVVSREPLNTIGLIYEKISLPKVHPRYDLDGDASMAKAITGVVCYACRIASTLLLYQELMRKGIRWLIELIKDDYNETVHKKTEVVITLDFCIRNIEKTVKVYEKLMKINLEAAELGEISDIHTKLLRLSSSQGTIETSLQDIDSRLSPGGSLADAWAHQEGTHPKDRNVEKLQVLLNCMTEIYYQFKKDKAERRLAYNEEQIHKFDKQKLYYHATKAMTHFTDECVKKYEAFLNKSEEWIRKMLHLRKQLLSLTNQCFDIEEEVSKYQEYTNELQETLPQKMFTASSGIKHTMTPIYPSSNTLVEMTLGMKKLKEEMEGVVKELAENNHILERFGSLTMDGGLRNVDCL
Outline: (§1)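 Percent inhibition of each kinase was measured with the inhibitor at 0.1 µM and at 1 µM, as part of a 200-kinase human selectivity panel.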

PRKG2 = target: T2, PRKG2 (Homo sapiens, UniProt Q13237)
T2 construct: purchased Nanosyn (enzymatic panel); SGC in-house recombinant human kinases (DSF panel); Invitrogen (ALK1-6)
T2 sequence (Q13237 1-762): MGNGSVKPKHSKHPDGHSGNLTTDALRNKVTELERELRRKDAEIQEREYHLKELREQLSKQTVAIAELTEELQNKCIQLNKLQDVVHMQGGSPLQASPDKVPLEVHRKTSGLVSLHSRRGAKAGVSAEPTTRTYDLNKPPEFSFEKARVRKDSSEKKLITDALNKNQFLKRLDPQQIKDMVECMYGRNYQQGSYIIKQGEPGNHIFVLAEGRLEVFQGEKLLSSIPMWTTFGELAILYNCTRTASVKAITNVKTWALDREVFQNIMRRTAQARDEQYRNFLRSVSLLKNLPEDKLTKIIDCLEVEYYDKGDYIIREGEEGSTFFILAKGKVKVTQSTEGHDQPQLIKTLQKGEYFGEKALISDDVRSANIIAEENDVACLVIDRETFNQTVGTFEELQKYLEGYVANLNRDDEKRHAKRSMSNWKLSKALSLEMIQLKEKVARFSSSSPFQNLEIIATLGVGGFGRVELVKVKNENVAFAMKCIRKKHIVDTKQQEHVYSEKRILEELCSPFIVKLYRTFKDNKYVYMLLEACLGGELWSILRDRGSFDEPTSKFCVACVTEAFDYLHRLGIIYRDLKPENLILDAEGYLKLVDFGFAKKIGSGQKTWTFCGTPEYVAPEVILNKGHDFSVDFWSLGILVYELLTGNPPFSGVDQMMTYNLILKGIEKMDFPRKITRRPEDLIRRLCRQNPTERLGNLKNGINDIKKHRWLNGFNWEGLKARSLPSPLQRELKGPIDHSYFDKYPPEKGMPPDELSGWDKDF
Outline: as §1

ERBB4 = target: T3, ERBB4 (Homo sapiens, UniProt Q15303)
T3 construct: purchased Nanosyn (enzymatic panel); SGC in-house recombinant human kinases (DSF panel); Invitrogen (ALK1-6)
T3 sequence (Q15303 26-1308): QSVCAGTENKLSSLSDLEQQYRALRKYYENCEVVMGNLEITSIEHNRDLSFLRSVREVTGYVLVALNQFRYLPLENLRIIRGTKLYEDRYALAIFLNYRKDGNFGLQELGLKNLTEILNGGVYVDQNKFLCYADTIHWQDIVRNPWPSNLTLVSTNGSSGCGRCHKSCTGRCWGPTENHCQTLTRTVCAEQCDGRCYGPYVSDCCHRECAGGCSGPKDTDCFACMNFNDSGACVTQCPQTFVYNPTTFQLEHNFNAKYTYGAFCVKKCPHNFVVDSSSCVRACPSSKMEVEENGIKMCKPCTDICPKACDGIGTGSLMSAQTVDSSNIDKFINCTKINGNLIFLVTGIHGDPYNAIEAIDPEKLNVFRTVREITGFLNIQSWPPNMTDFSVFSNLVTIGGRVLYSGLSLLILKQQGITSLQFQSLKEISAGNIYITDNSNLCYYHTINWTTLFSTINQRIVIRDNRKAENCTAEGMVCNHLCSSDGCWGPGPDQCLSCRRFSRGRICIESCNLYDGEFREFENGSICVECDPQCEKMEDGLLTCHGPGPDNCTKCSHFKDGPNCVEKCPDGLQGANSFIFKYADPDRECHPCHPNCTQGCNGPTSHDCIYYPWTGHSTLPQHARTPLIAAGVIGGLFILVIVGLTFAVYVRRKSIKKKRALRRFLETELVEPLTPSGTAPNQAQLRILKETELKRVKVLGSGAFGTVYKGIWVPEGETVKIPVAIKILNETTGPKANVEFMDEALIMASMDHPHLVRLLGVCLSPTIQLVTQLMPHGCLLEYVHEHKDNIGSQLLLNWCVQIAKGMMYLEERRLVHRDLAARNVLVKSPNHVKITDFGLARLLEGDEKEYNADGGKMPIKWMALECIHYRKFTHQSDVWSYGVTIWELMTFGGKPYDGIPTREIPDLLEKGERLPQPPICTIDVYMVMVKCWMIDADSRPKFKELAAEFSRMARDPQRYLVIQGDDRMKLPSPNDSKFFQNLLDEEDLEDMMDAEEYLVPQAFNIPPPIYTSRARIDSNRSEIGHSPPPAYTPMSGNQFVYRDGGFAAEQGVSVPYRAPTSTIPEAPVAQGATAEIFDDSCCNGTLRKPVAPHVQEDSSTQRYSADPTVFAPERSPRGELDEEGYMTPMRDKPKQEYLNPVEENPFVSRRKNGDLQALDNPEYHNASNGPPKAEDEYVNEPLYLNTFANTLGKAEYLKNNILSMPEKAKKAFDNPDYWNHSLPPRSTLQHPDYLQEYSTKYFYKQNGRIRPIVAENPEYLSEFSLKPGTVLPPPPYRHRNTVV
Outline: as §1

FGFR2 = target: T4, FGFR2 (Homo sapiens, UniProt P21802)
T4 construct: purchased Nanosyn (enzymatic panel); SGC in-house recombinant human kinases (DSF panel); Invitrogen (ALK1-6)
T4 sequence (P21802 22-821): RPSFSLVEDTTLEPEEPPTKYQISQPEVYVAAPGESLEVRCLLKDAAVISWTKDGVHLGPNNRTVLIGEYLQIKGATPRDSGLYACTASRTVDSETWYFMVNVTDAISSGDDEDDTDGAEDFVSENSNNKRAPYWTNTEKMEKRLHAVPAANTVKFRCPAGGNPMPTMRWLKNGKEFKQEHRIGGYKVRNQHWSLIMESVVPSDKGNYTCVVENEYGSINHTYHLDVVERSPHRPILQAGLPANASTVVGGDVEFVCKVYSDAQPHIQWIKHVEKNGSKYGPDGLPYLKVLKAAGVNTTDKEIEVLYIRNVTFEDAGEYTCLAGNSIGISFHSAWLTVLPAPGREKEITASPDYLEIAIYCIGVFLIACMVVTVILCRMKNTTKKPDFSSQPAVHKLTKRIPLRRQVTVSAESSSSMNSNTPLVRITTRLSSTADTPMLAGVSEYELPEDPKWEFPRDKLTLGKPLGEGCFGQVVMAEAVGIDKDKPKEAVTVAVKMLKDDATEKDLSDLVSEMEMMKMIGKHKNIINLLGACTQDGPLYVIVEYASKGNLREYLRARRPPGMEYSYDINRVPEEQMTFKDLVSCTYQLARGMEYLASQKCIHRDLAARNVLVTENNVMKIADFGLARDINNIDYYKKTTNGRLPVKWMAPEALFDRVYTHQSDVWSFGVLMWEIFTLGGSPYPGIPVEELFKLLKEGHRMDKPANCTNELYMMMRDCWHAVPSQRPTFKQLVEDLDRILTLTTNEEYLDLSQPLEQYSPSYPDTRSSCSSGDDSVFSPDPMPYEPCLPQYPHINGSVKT
Outline: as §1

CK1α = target: T5, CK1α (Homo sapiens, UniProt P48729)
T5 construct: purchased Nanosyn (enzymatic panel); SGC in-house recombinant human kinases (DSF panel); Invitrogen (ALK1-6)
T5 sequence (P48729 whole entry): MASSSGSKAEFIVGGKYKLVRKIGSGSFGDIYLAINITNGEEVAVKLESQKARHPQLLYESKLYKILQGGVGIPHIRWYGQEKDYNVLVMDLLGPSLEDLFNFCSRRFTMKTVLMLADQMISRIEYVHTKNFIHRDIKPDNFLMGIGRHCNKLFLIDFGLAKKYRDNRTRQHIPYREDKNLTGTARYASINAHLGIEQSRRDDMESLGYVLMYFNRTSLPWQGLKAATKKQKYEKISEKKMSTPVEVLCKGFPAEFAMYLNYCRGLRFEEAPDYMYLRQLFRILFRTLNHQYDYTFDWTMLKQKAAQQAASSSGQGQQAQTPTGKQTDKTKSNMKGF
Outline: as §1

DAPK1 = target: T6, DAPK1 (Homo sapiens, UniProt P53355)
T6 construct: purchased Nanosyn (enzymatic panel); SGC in-house recombinant human kinases (DSF panel); Invitrogen (ALK1-6)
T6 sequence (P53355 whole entry): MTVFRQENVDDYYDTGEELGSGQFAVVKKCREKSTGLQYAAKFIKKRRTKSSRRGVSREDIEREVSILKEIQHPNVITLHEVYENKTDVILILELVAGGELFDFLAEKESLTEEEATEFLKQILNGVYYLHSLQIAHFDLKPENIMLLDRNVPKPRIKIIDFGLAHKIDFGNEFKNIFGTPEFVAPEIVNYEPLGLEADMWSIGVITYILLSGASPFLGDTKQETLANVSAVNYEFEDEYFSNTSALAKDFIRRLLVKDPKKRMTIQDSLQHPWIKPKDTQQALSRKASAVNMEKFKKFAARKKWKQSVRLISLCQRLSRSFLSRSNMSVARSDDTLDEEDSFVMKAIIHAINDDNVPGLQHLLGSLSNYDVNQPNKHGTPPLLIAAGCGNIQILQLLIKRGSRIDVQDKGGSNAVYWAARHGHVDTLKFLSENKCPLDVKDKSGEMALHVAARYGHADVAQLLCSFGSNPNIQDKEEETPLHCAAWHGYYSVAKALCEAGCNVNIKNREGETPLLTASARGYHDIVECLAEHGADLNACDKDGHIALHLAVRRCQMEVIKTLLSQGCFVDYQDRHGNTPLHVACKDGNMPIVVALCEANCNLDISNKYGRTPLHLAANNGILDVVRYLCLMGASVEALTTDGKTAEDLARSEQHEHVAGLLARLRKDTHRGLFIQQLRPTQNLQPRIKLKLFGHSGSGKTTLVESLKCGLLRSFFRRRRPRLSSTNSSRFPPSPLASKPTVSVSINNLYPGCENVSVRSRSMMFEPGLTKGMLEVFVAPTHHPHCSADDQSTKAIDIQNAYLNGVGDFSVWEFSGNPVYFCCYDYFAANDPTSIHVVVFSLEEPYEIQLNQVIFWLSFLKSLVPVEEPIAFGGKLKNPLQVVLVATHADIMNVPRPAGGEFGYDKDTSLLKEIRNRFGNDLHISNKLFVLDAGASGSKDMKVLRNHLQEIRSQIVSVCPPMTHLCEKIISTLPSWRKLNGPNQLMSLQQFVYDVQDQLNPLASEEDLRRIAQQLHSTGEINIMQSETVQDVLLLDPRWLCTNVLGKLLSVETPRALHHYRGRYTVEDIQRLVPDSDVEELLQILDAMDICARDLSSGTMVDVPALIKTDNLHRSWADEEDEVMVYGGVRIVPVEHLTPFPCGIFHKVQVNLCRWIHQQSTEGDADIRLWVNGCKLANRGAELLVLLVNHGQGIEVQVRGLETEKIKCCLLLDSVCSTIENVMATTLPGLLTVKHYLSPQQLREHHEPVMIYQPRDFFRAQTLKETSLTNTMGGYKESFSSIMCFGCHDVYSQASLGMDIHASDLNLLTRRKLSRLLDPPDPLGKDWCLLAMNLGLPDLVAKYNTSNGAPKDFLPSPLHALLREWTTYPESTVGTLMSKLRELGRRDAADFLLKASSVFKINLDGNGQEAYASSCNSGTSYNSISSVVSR
Outline: as §1

TYK2 = target: T7, TYK2 (Homo sapiens, UniProt P29597)
T7 construct: purchased Nanosyn (enzymatic panel); SGC in-house recombinant human kinases (DSF panel); Invitrogen (ALK1-6)
Outline: as §1

PHKγ2 = target: T8, PHKγ2 (Homo sapiens, UniProt P15735)
T8 construct: purchased Nanosyn (enzymatic panel); SGC in-house recombinant human kinases (DSF panel); Invitrogen (ALK1-6)
T8 sequence (P15735 1-406): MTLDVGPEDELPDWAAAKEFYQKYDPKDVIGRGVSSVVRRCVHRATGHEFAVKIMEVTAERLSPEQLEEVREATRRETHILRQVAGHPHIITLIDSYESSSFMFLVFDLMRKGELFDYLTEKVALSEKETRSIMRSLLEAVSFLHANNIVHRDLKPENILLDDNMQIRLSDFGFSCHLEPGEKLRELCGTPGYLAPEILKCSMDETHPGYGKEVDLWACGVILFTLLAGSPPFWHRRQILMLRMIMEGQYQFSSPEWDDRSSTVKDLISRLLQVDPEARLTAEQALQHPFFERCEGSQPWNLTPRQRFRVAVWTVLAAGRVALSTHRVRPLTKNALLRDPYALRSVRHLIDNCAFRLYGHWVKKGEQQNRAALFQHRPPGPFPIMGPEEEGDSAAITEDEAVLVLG
Outline: as §1

EPHA4 = target: T9, EPHA4 (Homo sapiens, UniProt P54764)
T9 construct: purchased Nanosyn (enzymatic panel); SGC in-house recombinant human kinases (DSF panel); Invitrogen (ALK1-6)
T9 sequence (P54764 20-986): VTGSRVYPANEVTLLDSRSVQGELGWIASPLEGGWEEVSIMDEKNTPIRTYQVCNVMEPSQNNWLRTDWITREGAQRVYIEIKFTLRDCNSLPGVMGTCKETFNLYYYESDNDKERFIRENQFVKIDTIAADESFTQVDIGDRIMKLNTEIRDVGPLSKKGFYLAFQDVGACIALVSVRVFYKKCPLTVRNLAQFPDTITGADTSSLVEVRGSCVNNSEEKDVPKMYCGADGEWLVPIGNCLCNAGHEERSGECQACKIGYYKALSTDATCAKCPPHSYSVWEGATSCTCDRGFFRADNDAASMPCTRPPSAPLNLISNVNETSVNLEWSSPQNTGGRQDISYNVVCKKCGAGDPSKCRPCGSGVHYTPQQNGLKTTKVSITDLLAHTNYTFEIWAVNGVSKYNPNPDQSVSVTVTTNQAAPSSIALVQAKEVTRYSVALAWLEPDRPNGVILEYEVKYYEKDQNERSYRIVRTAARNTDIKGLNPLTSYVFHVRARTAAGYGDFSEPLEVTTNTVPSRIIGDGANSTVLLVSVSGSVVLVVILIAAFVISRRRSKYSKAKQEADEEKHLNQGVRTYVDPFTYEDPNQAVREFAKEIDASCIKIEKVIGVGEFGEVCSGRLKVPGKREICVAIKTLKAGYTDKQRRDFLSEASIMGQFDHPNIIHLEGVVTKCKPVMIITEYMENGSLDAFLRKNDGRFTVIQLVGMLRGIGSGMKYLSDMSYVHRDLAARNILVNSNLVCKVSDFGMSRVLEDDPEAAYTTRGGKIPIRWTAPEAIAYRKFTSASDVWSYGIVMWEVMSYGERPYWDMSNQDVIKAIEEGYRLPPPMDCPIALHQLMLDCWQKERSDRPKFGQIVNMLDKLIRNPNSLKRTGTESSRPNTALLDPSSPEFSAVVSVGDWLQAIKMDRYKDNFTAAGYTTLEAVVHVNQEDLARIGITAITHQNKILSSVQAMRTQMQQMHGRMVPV
Outline: as §1

SMILES | inhibition at 0.1 µM (TBK1) [%] | inhibition at 1 µM (TBK1) [%] | inhibition at 0.1 µM (PRKG2) [%] | inhibition at 1 µM (PRKG2) [%] | inhibition at 0.1 µM (ERBB4) [%] | inhibition at 1 µM (ERBB4) [%] | inhibition at 0.1 µM (FGFR2) [%] | inhibition at 1 µM (FGFR2) [%] | inhibition at 0.1 µM (CK1α) [%] | inhibition at 1 µM (CK1α) [%] | inhibition at 0.1 µM (DAPK1) [%] | inhibition at 1 µM (DAPK1) [%] | inhibition at 0.1 µM (TYK2) [%] | inhibition at 1 µM (TYK2) [%] | inhibition at 0.1 µM (PHKγ2) [%] | inhibition at 1 µM (PHKγ2) [%] | inhibition at 0.1 µM (EPHA4) [%] | inhibition at 1 µM (EPHA4) [%]
COc1cc(-c2cc(-c3cccc(O)c3)cnc2N)cc(OC)c1OC [K02288, 3-[6-amino-5-(3,4,5-trimethoxy-phenyl)-pyridin-3-yl]-phenol] | 1.5 | 3.7 | 1 | 5 | -5 | 0.9 | 0.3 | 1.1 | 0 | 7.2 | -1 | -1 | 0 | 1.8 | -3 | -3 | -2 | 17
c1ccc2c(-c3cnn4cc(-c5ccc(N6CCNCC6)cc5)cnc34)ccnc2c1 [LDN-193189] | 4.5 | 16 | 1.7 | 9.3 | 6.1 | 11 | 5 | 18 | 14 | 56 | 1.5 | 0.4 | -1 | -2 | 3.5 | 4.9 | 7.1 | 10
